The values that follow come from ChEMBL document CHEMBL1201862, “PubChem BioAssay data set” (2004).

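All cell lines were grown in 96-well plates and treated with compound for 48 hours. Here, GI50 denotes the concentration required for 50% inhibition of growth.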 The source made the active and inactive calls. Rule as the data show it: active = GI50 up to about 1.1 µM and inactive = higher.

Holding throughout (assay): NCI tumour cell line growth inhibition, 48 h
Assay [1] relates to U-251.
Assay [2] has as its system NCI-H460.
The subject of assay [3] is SF-295.
The subject of assay [4] is SNB-75.
For assay [5], the system named is UO-31.
Assay [6] relates to BT-549.
The test system of assay [7] is DU-145.
Assay [8] concerns 786-0.
The test system of assay [9] is UACC-62.
Assay [10] has as its system SNB-19.
Assay [11] relates to HCT-15.
Assay [12] concerns LOX IMVI.
The test system of assay [13] is MCF7.
Assay [14] deals with HCC 2998.
The test system of assay [15] is NCI-H23.
Assay [16] relates to A549.
The test system of assay [17] is RXF 393.
The test system of assay [18] is NCI-H226.
For assay [19], the system named is Malme-3M.
Assay [20] relates to A498.

On to `Nc1ccn(C2CC(O)C(COP(=O)(S)OC3CC(n4ccc(N)nc4=O)OC3CO)O2)c(=O)n1` (stereo not drawn), for which the GI50 in assay [1] was > 100 µM (inactive); in [2], > 100 µM (inactive); in [3], > 100 µM (inactive); in [4] it was 36.5 µM (inactive); in assay [5], > 100 µM (inactive); in assay [6] it was > 100 µM (inactive). Also, the GI50 was > 100 µM (inactive) in assay [7]; > 100 µM (inactive) in assay [8]; > 100 µM (inactive) in assay [9]; > 100 µM (inactive) in assay [10]; more than 100 µM in assay [11]; > 100 µM (inactive) in [12]. Further, the GI50 in assay [13], in assay [14], in assay [15] and in assay [16] was > 100 µM (inactive) each time.
Turning to `C/C(=N\NC(=S)N1CC2CCC(CC2)C1)c1cccc(C)n1`, the GI50 in assay [17] was 3.72 µM (inactive); in assay [1] it was 0.551 µM (active); in [2] it was 0.248 µM (active); in [3], 0.445 µM (active); in [4], 2.64 µM (inactive); in [18], 0.841 µM (active). Moreover, the GI50 in [5] is 0.505 µM (active); in [6], 1.32 µM (inactive); in assay [19], 2.11 µM (inactive); in assay [7], 0.617 µM (active); in [8] it was 1.08 µM (active); in assay [9] it was 0.621 µM (active). For the same compound, the GI50 in assay [10] was 1.75 µM (inactive); in assay [11], 0.537 µM; in assay [12], 0.78 µM (active); in assay [20], 3.11 µM (inactive); in [14], 2.16 µM (inactive); in [15], 2.49 µM (inactive). Further, the GI50 in [16] was 0.9 µM (active).
On to `COC(=O)C1=C(OC(=O)/C=C/c2ccc(Cl)cc2)C(C(=O)OC)[C@]2(O)[C@@H](C(=O)OC)[C@H]1C[C@@H](c1ccccc1)[C@@H]2C(=O)OC` (stereo partly drawn), for which the GI50 in [17] is 9.29 µM (inactive); in assay [1] it was 4.74 µM (inactive); in assay [2] it was 4.15 µM (inactive); in [3] it was 9.23 µM (inactive); in assay [4], 12.3 µM (inactive); in assay [18] it was 4.12 µM (inactive). The GI50 in assay [5] is 7.08 µM (inactive); in assay [6], 6.55 µM (inactive); in assay [19], 4.94 µM (inactive); in assay [7], 7.31 µM (inactive); in [8], 4.92 µM (inactive); in assay [9], 7.45 µM (inactive). Moreover, the GI50 is 6.65 µM (inactive) in assay [10]; 3.66 µM in assay [11]; 7.19 µM (inactive) in [12]; 6.04 µM (inactive) in assay [20]; 7.83 µM (inactive) in assay [14]; 3.44 µM (inactive) in assay [15]. Further, the GI50 in assay [16] is 3.7 µM (inactive).
As to `CC(C)NC(=O)N(Nc1ccccc1)C(C)(C)C`, the GI50 is > 100 µM (inactive) in assay [17]; > 100 µM (inactive) in [1]; > 100 µM (inactive) in assay [2]; > 100 µM (inactive) in assay [3]; 73.8 µM (inactive) in assay [4]; > 100 µM (inactive) in [18]. In addition, the GI50 in assay [5] was 96.2 µM (inactive); in [6], > 100 µM (inactive); in [19], > 100 µM (inactive); in assay [8], > 100 µM (inactive); in assay [9] it was > 100 µM (inactive); in assay [10], > 100 µM (inactive). In addition, the GI50 was more than 100 µM in assay [11]; > 100 µM (inactive) in assay [12]; > 100 µM (inactive) in assay [20]; > 100 µM (inactive) in assay [13]; > 100 µM (inactive) in [14]; > 100 µM (inactive) in assay [15]. The GI50 in [16] was > 100 µM (inactive).
